Experimental data as given in paper PMC6770006, “Novel Heat Shock Protein 90 Inhibitors Suppress P-Glycoprotein Activity and Overcome Multidrug Resistance in Cancer Cells” (International Journal of Molecular Sciences, 2019).
Entries after “also recorded” stand apart in the source; their conditions may differ.

Columns and labels:
P-gp = P-gp (Homo sapiens, UniProt P08183); assay: Rhodamine 123 accumulation assay (P-gp activity, flow cytometry); assay type: cell-based; set-up: P-gp overexpressing multidrug resistant DLD1-TxR cells were selected by continuous exposure to stepwise increasing concentrations of paclitaxel from DLD1 cells; endogenous in cells; host or cells: NCI-H460/R and DLD1-TxR (drug-selected MDR human cancer cells); conditions: MDR NCI-H460/R and DLD1-TxR cells, 30 min, one concentration per compound (100 nM-10 µM), Figure 3a
Chain of P-gp (P08183 whole entry): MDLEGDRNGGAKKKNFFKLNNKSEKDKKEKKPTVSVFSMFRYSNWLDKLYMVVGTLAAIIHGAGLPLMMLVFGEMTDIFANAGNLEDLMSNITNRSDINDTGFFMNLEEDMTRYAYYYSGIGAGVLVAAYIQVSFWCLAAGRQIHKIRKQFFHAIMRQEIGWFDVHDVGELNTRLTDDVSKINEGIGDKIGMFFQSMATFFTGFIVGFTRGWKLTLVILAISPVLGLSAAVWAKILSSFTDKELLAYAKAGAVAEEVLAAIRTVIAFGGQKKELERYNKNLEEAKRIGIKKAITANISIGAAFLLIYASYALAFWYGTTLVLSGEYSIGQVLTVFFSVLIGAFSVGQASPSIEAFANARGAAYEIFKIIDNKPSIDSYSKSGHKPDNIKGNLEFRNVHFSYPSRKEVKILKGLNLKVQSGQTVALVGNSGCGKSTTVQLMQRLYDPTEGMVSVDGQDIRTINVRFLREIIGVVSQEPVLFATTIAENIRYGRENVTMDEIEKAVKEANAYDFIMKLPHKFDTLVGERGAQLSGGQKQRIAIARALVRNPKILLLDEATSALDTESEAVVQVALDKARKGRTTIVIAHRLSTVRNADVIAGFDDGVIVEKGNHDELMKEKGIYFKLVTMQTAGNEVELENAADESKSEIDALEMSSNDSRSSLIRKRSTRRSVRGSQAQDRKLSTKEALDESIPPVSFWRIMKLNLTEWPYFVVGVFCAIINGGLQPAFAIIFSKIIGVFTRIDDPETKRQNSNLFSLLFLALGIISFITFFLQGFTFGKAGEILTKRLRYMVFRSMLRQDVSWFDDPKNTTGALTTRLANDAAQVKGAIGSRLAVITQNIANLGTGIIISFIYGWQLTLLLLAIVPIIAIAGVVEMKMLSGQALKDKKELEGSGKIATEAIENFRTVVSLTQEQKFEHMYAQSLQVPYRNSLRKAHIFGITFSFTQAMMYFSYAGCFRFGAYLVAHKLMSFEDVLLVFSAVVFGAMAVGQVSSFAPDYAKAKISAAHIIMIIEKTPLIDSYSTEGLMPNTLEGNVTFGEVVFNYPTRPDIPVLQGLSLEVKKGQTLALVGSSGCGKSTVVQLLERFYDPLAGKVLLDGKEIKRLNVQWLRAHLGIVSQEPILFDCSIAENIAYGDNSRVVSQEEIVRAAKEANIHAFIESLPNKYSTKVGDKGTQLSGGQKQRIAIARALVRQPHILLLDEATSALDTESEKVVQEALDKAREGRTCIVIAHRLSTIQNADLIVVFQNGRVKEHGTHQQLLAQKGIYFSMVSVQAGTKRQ
Procedure: To study the effect of Hsp90 inhibitors on P-gp activity in MDR cancer cells, intracellular accumulation of the P-gp substrate rhodamine 123 (Rho 123) was analyzed by flow cytometry after 30 min treatment (Figure 3a). A well-known inhibitor of P-gp activity, tariquidar (TQ), was included as a positive control.
The accumulation of Rho 123, a fluorescent P-gp substrate, was measured by flow cytometry. The intensity of the fluorescence is proportional to Rho 123 accumulation in the cell. All cell lines were seeded in adherent 6-well plates and grown overnight. DLD1-TxR and NCI-H460/R cells were treated for 30 min with the following concentrations of Hsp90 inhibitors: 500 nM compound 3, 1 µM compound 4, 10 µM compound 5, 500 nM compound 6, 500 nM compound 7, 1 µM compound 8, 500 nM compound 9, 1 µM compound 10, 1 µM compound 13, 10 µM compound 14, 100 nM compound 15. TQ (10 nM) was used as a positive control for Rho 123 accumulation. Rho 123 (5 μM) was simultaneously added with the investigated compounds and the cells were incubated at 37 °C in 5% CO2 for 30 min. The cells were then trypsinized, pelleted by centrifugation, washed with PBS and placed in ice-cold PBS. The samples were kept on ice in the dark until the analysis on CyFlow Space Partec flow cytometer (Sysmex Partec GmbH, Görlitz, Germany). The fluorescence of Rho 123 was detected on fluorescence channel 1 (FL1-H) at 530 nm. A minimum of 10,000 events were collected for each sample and the obtained results were analyzed using Summit software.

NCI-H460 cells = assay: MTT assay, cell growth inhibition, NCI-H460; assay type: cell-based; conditions: Homo sapiens, 72 h, three independent experiments
Procedure: (§1) A series of 3-aryl-naphtho[2,3-d]isoxazole-4,9-diones were synthesized (Scheme 1, Figure 1) and their growth inhibition activity was tested in vitro on human non-small cell lung carcinoma NCI-H460, colorectal carcinoma DLD1 and their corresponding MDR cells (NCI-H460/R and DLD1-TxR, respectively), as well as normal embryonic lung fibroblasts MRC-5. The differences in cell growth inhibition between cancer and normal cells obtained by the MTT assay after 72 h treatment are presented in Table 1. The effect of compounds is presented as IC50 values that correspond to the 50% of cell growth inhibition.
(§2) Cell viability was assessed by the MTT assay (AppliChem GmbH, Darmstadt, Germany). Cells grown in 25 cm^2 tissue flasks were trypsinized and 1000 cells/well were seeded into flat-bottomed 96-well tissue culture plates and incubated overnight. Subsequently, the cells were treated with increasing concentrations of Hsp90 inhibitors for 72 h: compound 3 (0.1–2.5 µM), compound 4 (0.25–5 µM), compound 5 (0.5–25 µM), compound 6 (50–1000 nM), compound 7 (10–250 nM), compound 8 (0.25–5 µM), compound 9 (10–250 nM), compound 10 (0.5–25 µM), compound 13 (0.5–10 µM), compound 14 (1–25 µM), and compound 15 (10–250 nM). […] After treatment, MTT was added to each well in a final concentration of 0.2 mg/mL for 4 h. Formazan product was dissolved in 200 µl of DMSO, and the absorbance was measured at 540 nm using an automatic LKB 5060-006 Micro Plate Reader (Vienna, Austria). IC50 value was defined as a concentration of the drug that inhibited cell growth by 50% and was calculated by nonlinear regression analysis using GraphPad Prism 6.0 for Windows (La Jolla, CA, USA). Relative selectivity towards cancer cells was calculated as a relation between IC50 value obtained in MRC-5 cells and an average IC50 value from four tested cancer cell lines.

MRC-5 cells = assay: MTT assay, normal embryonic lung fibroblasts MRC-5; assay type: cell-based, human; conditions: for IC50: Homo sapiens, MRC5, MTT, 72 h, normal fibroblasts, read-out: Cell growth inhibition IC50, MRC-5; for Relative Selectivity: IC50 in MRC-5 cells / average IC50 of four cancer cell lines
Procedure: as §1, §2

DLD1-TxR cells = assay: MTT assay, cell growth inhibition, DLD1-TxR (MDR); assay type: cell-based, human; conditions: 72 h; for IC50: Homo sapiens, MDR cells
Procedure: as §1
(§3) Human colorectal carcinoma (DLD1), non-small cell lung carcinoma (NCI-H460), and normal embryonic lung fibroblast (MRC-5) cell lines were purchased from the American Type Culture Collection, Rockville, MD. P-gp overexpressing multidrug resistant DLD1-TxR cells were selected by continuous exposure to stepwise increasing concentrations of paclitaxel from DLD1 cells, while NCI-H460/R cells were selected from NCI-H460 cells after DOX selective pressure. MDR cancer cell lines, DLD1-TxR and NCI-H460/R, and their sensitive counterparts were maintained in RPMI 1640 medium supplemented with 10% FBS, 2 mM L-glutamine, and 10,000 U/mL penicillin, 10 mg/mL streptomycin, 25 mg/mL amphotericin B solutions. MRC-5 cells were cultured in DMEM supplemented with 10% FBS, 4 g/L glucose, 2 mM L-glutamine and 5000 U/mL penicillin, 5 mg/mL streptomycin solution. All cell lines were sub-cultured at 72 h intervals using 0.25% trypsin/EDTA and seeded into a fresh medium at 8000 cells/cm^2. All cell lines were maintained at 37 °C in a humidified 5% CO2 atmosphere.
as §2

DLD1 cells = assay: MTT assay, cell growth inhibition, DLD1; assay type: cell-based; conditions: Homo sapiens, DLD-1, 72 h
Procedure: as §1, §2

NCI-H460/R cells = assay: MTT assay, cell growth inhibition, NCI-H460/R (MDR); assay type: cell-based, human; conditions: for Efficacy in MDR NCI-H460/R cells compared with sensitive NCI-H460: 72 h; for IC50: Homo sapiens, NCI-H460, 72 h, MDR cells
Procedure: as §1, §3, §2

Hsp90 = tested on: Hsp90; set-up: method as in PMID 22538015; conditions: read-out: Hsp90 Affinity binding; cited from earlier work
[1] = tested on: NCI-H460, NCI-H460/R, DLD1, DLD1-TxR cells; assay: MTT assay, grouping of inhibitors by IC50 over the cancer cell lines; assay type: cell-based; conditions: Homo sapiens, Figure 2b, read-out: IC50 values (grouping for Pearson correlation)
Procedure: When the IC50 values obtained by the MTT assay were compared to Hsp90 affinity binding IC50 values (Table 1), a positive Pearson correlation (r > 0.5) was found for all cancer cell lines (Figure 2b).
as §2

P-gp expression = assay: Flow cytometric analysis of P-gp expression; assay type: cell-based, human; conditions: 72 h; for Change in P-gp expression, DLD1 / Change in P-gp expression, NCI-H460: 5 µM 5, 200 nM 7, 100 nM 9, 10 nM TQ, 50 nM DOX, 50 nM PTX
Procedure: P-glycoprotein expression level in NCI-H460, NCI-H460/R, DLD1, and DLD1-TxR and cells was measured by flow cytometry. All cell lines were seeded in adherent 6-well plates and treated with Hsp90 inhibitors for 72 h at the following concentrations: 5 µM compound 5, 200 nM compound 7, 100 nM compound 9 (NCI-H460 and DLD1), and 10 µM compound 5, 500 nM compound 7, 500 nM compound 9 (NCI-H460/R and DLD1-TxR). Cells were also treated with 10 nM TQ, a non-competitive P-gp inhibitor, which served as a positive control. In addition, sensitive cells (NCI-H460 and DLD1) were treated with 50 nM DOX and 50 nM PTX that served as positive controls for the induction of P-gp expression. Then, cells were collected by trypsinization, washed with PBS, and directly immunostained by FITC-conjugated anti-P-gp antibody according to the manufacturer’s protocol. The samples were kept in the dark until the analysis on CyFlow Space Partec flow cytometer (Sysmex Partec GmbH, Görlitz, Germany). The fluorescence of FITC-conjugated anti-P-gp was detected on fluorescence channel 1 (FL1-H) at 530 nm. A minimum of 10,000 events were collected for each sample (the gate excluded cell debris and dead cells) and the obtained results were analyzed with Summit software v4.3 (Dako Colorado Inc., Fort Collins, CO, USA).

[2] = 10 µM 5, 500 nM 7, 500 nM 9, 10 nM TQ

Structure (SMILES) | P-gp activity / Rho 123 accumulation (P-gp) | IC50 (NCI-H460 cells) [nM] | IC50 (MRC-5 cells) [nM] | Efficacy in MDR DLD1-TxR cells compared with sensitive DLD1 (DLD1-TxR cells) | IC50 (DLD1-TxR cells) [nM] | IC50 (DLD1 cells) [nM] | Efficacy in MDR NCI-H460/R cells compared with sensitive NCI-H460 (NCI-H460/R cells) | IC50 (NCI-H460/R cells) [nM] | IC50 (Hsp90) [nM] | IC50 [1] [nM] | Relative Selectivity (MRC-5 cells) | Change in P-gp expression, DLD1 (P-gp expression) | Change in P-gp expression, NCI-H460 (P-gp expression) | Change in P-gp expression, DLD1-TxR (P-gp expression; [2]) | Change in P-gp expression, NCI-H460/R (P-gp expression; [2])
O=C1c2ccccc2C(=O)c2c(-c3ccccc3)noc21 [Compound 3] | did not influence the P-gp activity | 785 ± 32 | 636 ± 23 | better efficacy in cells with MDR phenotype | 644 ± 20 | 925 ± 32 | better efficacy in cells with MDR phenotype | 599 ± 20 | 7850 | < 1000 |  |  |  |  | 
COc1ccc(-c2noc3c2C(=O)c2ccccc2C3=O)cc1 [Compound 4] | did not have any positive effects | 935 ± 48 | 1750 ± 83 | remained higher than in the corresponding sensitive cells | 1060 ± 25 | 1520 ± 54 | remained higher than in the corresponding sensitive cells | 579 ± 18 | 5840 |  | 1.71 |  |  |  | 
O=C1c2ccccc2C(=O)c2c(-c3ccc(OCCN4CCOCC4)cc3)noc21 [Compound 6] | did not have any positive effects | 807 ± 35 | 4740 ± 473 | evaded resistance | 439 ± 10 | 439 ± 6 | collateral sensitivity | 472 ± 18 | 1200 | < 1000 | 8.79 |  |  |  | 
O=C1c2ccccc2C(=O)c2c(-c3cc[n+](Cc4ccccc4)cc3)noc21 [Compound 8] | detrimental; also recorded: modest activity | 159 ± 3 | 11000 ± 366 | compromised in the presence of the MDR phenotype | 3360 ± 49 | 251 ± 3 | compromised in the presence of the MDR phenotype | 351 ± 5 | 34 | ≥ 1000 | 10.69 |  |  |  | 
O=C1c2ccccc2C(=O)c2c(-c3ccccn3)noc21 [Compound 10] | reduction in activity | 1270 ± 14 | 257 ± 4 | collateral sensitivity | 1790 ± 36 | 2640 ± 35 | overcame resistance | 1375 ± 12 | 1060 | ≥ 1000 |  |  |  |  | 
COc1cccc2c1C(=O)c1c(-c3ccncc3)noc1C2=O [Compound 13] | decreased | 1250 ± 28 | 174 ± 4 | collateral sensitivity | 1000 ± 16 | 1900 ± 36 | evaded resistance mechanisms | 1060 ± 12 | 1900 | ≥ 1000 |  |  |  |  | 
CC(=O)O[C@H]1C(=O)[C@@]2(C)[C@H]([C@H](OC(=O)c3ccccc3)[C@]3(O)C[C@H](OC(=O)[C@H](O)[C@@H](NC(=O)c4ccccc4)c4ccccc4)C(C)=C1C3(C)C)[C@]1(OC(C)=O)CO[C@@H]1C[C@@H]2O [PTX, paclitaxel] |  |  |  |  |  |  |  |  |  |  |  | significantly increased P-gp expression | significantly increased P-gp expression |  | 
COc1cc2c(cc1OC)CN(CCc1ccc(NC(=O)c3cc(OC)c(OC)cc3NC(=O)c3cnc4ccccc4c3)cc1)CC2 [TQ, tariquidar] |  |  |  |  |  |  |  |  |  |  |  | increased P-gp expression | did not influence the P-gp expression | increased P-gp expression | did not influence the P-gp expression
